Broadly, the IC50 is the concentration needed to halve the response being measured.

Assay [1] can be described thus: Anticancer activity against human WHCO1 cells assessed as cell growth incubated for 24 hrs by MTT assay. The class given is functional, cell-based. The following applies: WHCO1, 24 h. For orientation: Tetrazolium dyes change colour on reduction, which living cells bring about.
Assay [2] relates to MDA-MB-231. As to the kind of experiment: Anticancer activity against human MDA-MB-231 cells assessed as cell growth incubated for 24 hrs by MTT assay. The class given is functional, cell-based. To be noted: MDA-MB-231, 24 h.
Assay [3] has as its system NCI-H460. Kind of assay: Anticancer activity against human NCI-H460 cells assessed as cell growth incubated for 48 hrs by MTT assay. The class given is functional, cell-based. To be noted: NCI-H460, 48 h.
The nature of assay [4]: Anticancer activity against human U-87 MG cells assessed as cell growth inhibition. The class given is functional, U-87MG ATCC. The following applies: read-out: LC50 (the source's name).
The test system of assay [5] is HCT-116. As to the kind of experiment: Anticancer activity against human HCT-116 cells assessed as cell growth inhibition. To be noted: read-out: LC50 (the source's name). The class given is functional.
Assay [6] relates to A549. Kind of assay: Anticancer activity against human A549 cells assessed as cell growth inhibition. The class given is functional, cell-based.
In assay [7] the test system is SNB-19. Kind of assay: Anticancer activity against human SNB-19 cells assessed as cell growth inhibition. The class given is functional, cell-based.
Assay [8] has as its system OVCAR-3. As to the kind of experiment: Anticancer activity against human OVCAR-3 cells assessed as cell growth inhibition. The class given is functional, cell-based.
The subject of assay [9] is LOX IMVI. Kind of assay: Anticancer activity against human LOX IMVI cells assessed as cell growth inhibition. The class given is functional, cell-based.

Take `C/C(=C\Cc1cc(O)c(C)cc1O)CC/C=C(\C)CC(=O)CC(C)C`: the half-maximal inhibitory concentration (IC50) in [1] is 9.5 µM.

On to `O=C1Cc2ccc(Br)cc2N1`, for which the half-maximal inhibitory concentration (IC50) in [2] amounted to 74 µM. Take `Brc1ccc2c(Br)c[nH]c2c1`: the concentration for half-maximal inhibition (IC50) in [2] worked out at 118 µM.

For `CO[C@H]1[C@H](O[C@@H]2C[C@@H]3C/C=C/C(=O)O[C@H](CO)C[C@H](O)[C@@H]4C[C@H](C)[C@H](C/C=C\C=C\[C@H](C)C[C@H](C2)O3)O4)O[C@@H](C)[C@H](O)[C@H]1O`, the IC50 in assay [3] was 0.012 µM. In addition, in [4], the CC50 came out at 0.00038 µM.

For the compound `CC.CCCCCCCC(=O)OC[C@@H]1C[C@H](O)[C@@H]2C[C@H](C)[C@H](C/C=C\C=C\[C@H](C)C[C@@H]3C[C@H](O[C@@H]4O[C@@H](C)[C@H](O)[C@@H](O)[C@H]4OC)C[C@H](C/C=C/C(=O)O1)O3)O2`, the CC50 was found to be 0.054 µM in assay [5] and 0.061 µM in assay [4]. Regarding `Clc1c[nH]c2cc(Br)ccc12`, in [2], the IC50 amounted to 73 µM. Take `CCCCCCCC/C=C/C=C/[C@@H](C)N`: the concentration for half-maximal inhibition (IC50) in assay [6], in assay [7], in assay [8] and in assay [9] was 30 µM in each case.

With `CCCC(=O)O[C@@H]1C[C@H]2C[C@@H](O[C@@H]3O[C@@H](C)[C@@H](O)[C@@H](O)[C@H]3OC)C[C@@H](C[C@@H](C)/C=C/C=C\C[C@@H]3O[C@@H](C[C@@H]3C)[C@@H](O)C[C@H]3C[C@@]1(O)C(=O)O3)O2`, the 50% inhibitory concentration (IC50) in assay [3] was determined as 0.044 µM. In the case of `O=C1C[C@H]2S[C@H]3C[C@]2(C=C1Br)C1=C(N3)C(=O)c2[nH]cc3c2C1=NCC3` [DISCORHABDINE A], in [1], the IC50 is 0.017 µM.
